Positions of bridges follow the written chain, without caps; N, C: chain ends. Non-standard residues stand in square brackets, D forms with d. Residues, ends and D or L forms follow the SMILES beside them. No end group written: not given here. Trp(7-OH) = N[C@@H](Cc1c[nH]c2c(O)cccc12)C(=O)O; 2Nal = N[C@@H](Cc1ccc2ccccc2c1)C(=O)O
T1: endothelin B receptor (ETBR) (Homo sapiens, UniProt P24530)
T1 sequence (P24530 27-442): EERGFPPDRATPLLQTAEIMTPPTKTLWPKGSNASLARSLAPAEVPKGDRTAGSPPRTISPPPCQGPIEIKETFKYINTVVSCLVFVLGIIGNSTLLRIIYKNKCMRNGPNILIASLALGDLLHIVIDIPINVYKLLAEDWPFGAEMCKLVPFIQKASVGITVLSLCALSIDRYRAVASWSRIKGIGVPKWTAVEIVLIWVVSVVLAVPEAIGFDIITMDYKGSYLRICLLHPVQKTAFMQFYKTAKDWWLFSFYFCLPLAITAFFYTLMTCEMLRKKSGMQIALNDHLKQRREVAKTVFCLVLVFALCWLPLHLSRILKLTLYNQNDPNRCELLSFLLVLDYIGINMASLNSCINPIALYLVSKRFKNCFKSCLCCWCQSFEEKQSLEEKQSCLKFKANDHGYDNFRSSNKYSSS

T2: ETBR receptors (Homo sapiens, UniProt P24530)
T2 sequence (P24530 27-442): T1 sequence (P24530 27-442)

T3: human recombinant ETB receptor (ETBR) (Homo sapiens, UniProt P24530)
T3 construct: expressed in transfected cells; host or cells: CHO cells, stably transfected (vector pME18S-FL3); membranes prepared from them
T3 sequence (P24530 27-442): T1 sequence (P24530 27-442)

T4: human recombinant endothelin B receptor (ETBR) (human, UniProt P24530 27-442)
T4 construct: whole, on cells; The assay used membranes prepared from CHO-ETBR cells; also called ETB receptor; endothelin receptor type B
T4 sequence (looked up): T1 sequence (P24530 27-442)


Columns and labels:
[1] = system: human melanoma cell lines RPMI-7951, SK MEL 28, SK MEL 31, SK MEL 24, A375; test: Melanoma cell growth inhibition (Cell Titer-Glo 2.0 Luminescent Cell Viability Assay); type: cell-based; details: 72 hours incubation with compounds
From the text: The Cell Titer-Glo® 2.0 Luminescent Cell Viability Assay is a sensitive homogeneous method to determine the number of viable cells in culture. Detection is based on using the luciferase reaction to measure the amount of ATP from viable cells. The amount of ATP in cells correlates with cell viability. Within minutes after a loss of membrane integrity, cells lose the ability to synthesize ATP, and endogenous ATPases destroy any remaining ATP; thus the levels of ATP fall precipitously. The Cell Titer-Glo® 2.0 Reagent does three things upon addition to cells. It lyses cell membranes to release ATP; it inhibits endogenous ATPases, and it provides luciferin, luciferase and other reagents necessary to measure ATP using a bioluminescent reaction. The unique properties of a proprietary stable luciferase. There is a linear relationship (r2=0.99) between the luminescent signal and the number of cells from 0 to 50.000 cells per well. […]
Conditions: 37° C., air 95%; HEPA-filtered carbon dioxide (CO2) 5%, humidified atmosphere. • Cells are grown in 175 cm^2 flasks to 80-90% of confluency. • Culture media are aspirated and cell layer is briefly rinsed with Versen solution to remove all traces of serum. • 2 mL of Accutase is added to cells. • Flasks are returned to incubator for 5 min to allow cell detachment. • Add 6.0 mL of complete growth medium. • Single cell suspension is created by gently pipetting. • Cells are counted using a Hematocytometer and a suspension with the desired cell concentration is prepared. […]
Stock solutions (70 μL) are diluted with cell culture media to produce 500× serial dilutions and 10 of final compound dilutions are added to cells in assay plates to screen a series of 10 doses starting at […]. […] Luminescence intensity is measured for each well using the Tecan M 1000 microplate reader after 5 min of incubation with the Cell Titer-Glo® 2.0. The number of viable cells in culture is determined based on quantitation of the ATP present in each culture well. […] P values are calculated by using the Student's t test for absolute values. […]

[2] = biological target: endothelin A receptor (ETAR) (Homo sapiens, UniProt P25101); test: ETAR IC50 (nM)
From the text: Table printed on a drawing sheet, FIG. 3
Head of the field: ETAR IC50 (nM)

[3] = biological target: T1, endothelin B receptor (ETBR); test: IC50 of BQ-788 against ETAR and ETBR (FIG. 3B); type: binding; details: from IC50 against ETAR and ETBR
[4] = biological target: human recombinant endothelin B receptor (ETBR) (human) (UniProt P24530); test: not stated on the sheet or in the legend; the receptor source, species and competing ligand are not given, and the value may come from the literature
ETBR receptors = biological target: T2, ETBR receptors; details: physiological concentrations; cited from earlier work
[5] = biological target: T3, human recombinant ETB receptor (ETBR); test: ET-1 Receptor Binding Assay ([125I]ET-1, CHO cell membranes expressing ETBR)
Procedure: Preparation of Membranes. CHO cell membranes are prepared by washing ETAR- or ETBR-transfected cells with phosphate buffered saline and centrifugation. […] The homogenates are centrifuged at 8,000×g for 10 minutes and supernatants are then centrifuged at 40,000×g for 1 hour at 4° C. The pellets are homogenized in buffer A and recentrifuged at 40,000×g for 1 hour.
(§1) The glass filters are washed three times with cold 50 mM Tris-HCl buffer containing 1 mM EDTA. The radioactivity on the washed filter is measured by using a Packard γ counter.

[6] = biological target: T4, human recombinant endothelin B receptor …; test: displacement of [125I]ET-1 from CHO-ETBR membranes, filtration
Procedure: Preparation of Membranes. CHO cell membranes are prepared by washing ETAR- or ETBR-transfected cells with phosphate buffered saline and centrifugation. The resulting cell pellets are homogenized with a polytron (settings 8 for 30 seconds×2) in 5 volumes of buffer A containing 1 mM NaHCO₃, 5 mM EDTA (pH 8.3), 5 μg/ml Leupeptin, 5 μg/ml Pepstatin A, and 40 μM phenylmethylsulfonyl fluoride. The homogenates are centrifuged at 8,000×g for 10 minutes and supernatants are then centrifuged at 40,000×g for 1 hour at 4° C. The pellets are homogenized in buffer A and recentrifuged at 40,000×g for 1 hour. The resulting pellets are homogenized in buffer A supplemented with 130 mM NaCl, 5 mM Na₂HPO₄, and 1.5 mM KH₂PO₄ and stored at −70° C.
as §1

Row | IC50 [6] [nM] | Molecule | growth of all tested human melanoma cell lines [1] | further results
1 | 8 | GNWHGTSPDWFFNYY[Trp(7-OH)] (lactam N-9, also called Lasso 4) [lasso peptide having primary sequence of SEQ ID NO: 4] |  | 
2 | > 70 | GNWHGTAPDWFFNYYNIIW (lactam N-9, also called Lasso 48) [lasso peptide having primary sequence of SEQ ID NO: 48] |  | 

More lines, now with the values behind:

Row | Molecule | IC50 [6] [nM] | growth of all tested human melanoma cell lines [1] | further results
3 | CC(C)C[C@@H]1NC(=O)[C@@H](C(C)C)NC(=O)[C@@H]2CCCN2C(=O)[C@@H](CC(=O)O)NC(=O)[C@@H](Cc2c[nH]c3ccccc23)NC1=O [BQ-123] (cyclo(L[dW][dD]P[dV])) |  | not | 
4 | CCCC[C@@H](NC(=O)[C@@H](Cc1cn(C(=O)OC)c2ccccc12)NC(=O)[C@H](CC(C)(C)C)NC(=O)N1[C@H](C)CCC[C@@H]1C)C(=O)O [BQ-788] |  | inhibited | IC50 [2]: 280 nM; binding selectivity ETBR over ETAR [3]: selectively binds to ETBR over ETAR
5 | BQ-788 (peptide) |  |  | IC50 [4]: 1.2 nM
6 | ET-2: cognate endothelin ligand, 21-amino acid peptide (CSCSSWLDKECVYFCHLDIIW; ends and bridges not checked; cysteine pairing not given here; UniProt P20800 49-69, looked up) |  |  | Kd (ETBR receptors): 0.015 nM
7 | GNWHGTAPDWFFNYYW [Lasso 1] |  | inhibited | 
8 | MTEQSEQTPAEYIPPMLVEVGEFTEDTLGNWHGTAPDWFFNYYW [Lasso 18] |  |  | IC50 [5]: > 5 µM
9 | MTEQSEQTPAEYIPPMLVEVGEFTEDTLGNWHGTSPDWFFNYYW [Lasso 20] |  |  | IC50 [5]: > 5 µM
10 | GNWHGTAPDWFFNYY[2Nal] (lactam N-9, also called Lasso 54) [lasso peptide having primary sequence of SEQ ID NO: 54] | 6.3 |  | 

Reference: patent US20230076411A1, “LASSO PEPTIDES FOR TREATMENT OF CANCER” (Lassogen, Inc., priority 2020, published 2023)
